For 23 compounds, IC50 results are on record in US11970474B2, “Substituted benzodiazoles and use thereof in therapy” (THOMAS HELLEDAYS STIFTELSE FÖR MEDICINSK FORSKNING, priority 2018, dated 2024).

Sequence of OGG1 (O15527 whole entry): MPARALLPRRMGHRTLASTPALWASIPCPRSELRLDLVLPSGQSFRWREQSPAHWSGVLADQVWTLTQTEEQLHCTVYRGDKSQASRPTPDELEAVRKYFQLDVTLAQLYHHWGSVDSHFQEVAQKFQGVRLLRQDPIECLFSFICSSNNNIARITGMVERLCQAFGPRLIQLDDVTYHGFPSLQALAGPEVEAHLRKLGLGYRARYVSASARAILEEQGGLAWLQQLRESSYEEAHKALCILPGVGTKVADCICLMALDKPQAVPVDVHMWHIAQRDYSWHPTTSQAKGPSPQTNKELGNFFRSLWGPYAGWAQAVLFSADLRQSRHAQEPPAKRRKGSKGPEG

The target in this test is OGG1 (Homo sapiens (Human), UniProt O15527). Briefly: In vitro OGG1 activity assay. The class given is biochemical. Conditions: 800 pM OGG1 enzyme, 2 nM human APEX1, 10 nM 8-oxoA:C substrate. Here is the method:
Method 1: In Vitro OGG1 Activity Assay OGG1 activity is assayed by measuring the increase in fluorescence from a duplex oligonucleotide containing an OGG1 substrate and a fluorophore in close proximity that are quenched by a quencher on the complementary strand. […] OGG1 activity releases the substrate base from DNA by cleaving the N-glycosidic bond between base and deoxyribose. The resulting apurinic site is cleaved by an excessive amount APEX1 activity which cause the duplex to melt, which in turn cause the fluorophore to become unquenched. Compounds to be tested are dissolved in DMSO and nano-dispensed directly into black 384-well plates, followed by transfer of enzyme and substrate solutions. […] The fluorescent signal is recorded in a plate reader equipped with suitable filters to register fluorescein fluorescence.
Usually IC50 stands for the concentration at which inhibition is half-maximal. For `Cc1cc(NC(=O)N2CCC(n3c(=O)[nH]c4c(-c5ccc(CO)nc5)cccc43)CC2)ccc1I` [Example 81, 4-{4-[6-(Hydroxymethyl)pyridin-3-yl]-2-oxo-2,3-dihydro-1H-1,3-benzodiazol-1-yl}-N-(4-iodo-3-methylphenyl)piperidine-1-carboxamide], the IC50 stood at 0.408 µM.
For `Cc1cccc2c1[nH]c(=O)n2C1CCN(C(=O)Nc2ccc(Cl)cc2)CC1` [Example 7, N-(4-chlorophenyl)-4-(4-methyl-2-oxo-2,3-dihydro-1H-1,3-benzodiazol-1-yl)piperidine-1-carboxamide], the IC50 stood at 1.08 µM.
The value for `COc1ncc(NC(=O)[C@H]2CC[C@@H](n3c(=O)[nH]c4c(F)cccc43)CC2)cc1C` [Example 214, Cis-4-(4-fluoro-2-oxo-2,3-dihydro-1H-1,3-benzodiazol-1-yl)-N-(6-methoxy-5-methylpyridin-3-yl)cyclohexane-1-carboxamide] was 0.556 µM; that for `O=c1[nH]c2c(Br)cccc2n1[C@H]1CC[C@@H](C(=O)Nc2cnc(Cl)c(Cl)c2)CC1` [Example 185, Cis-4-(4-bromo-2-oxo-2,3-dihydro-1H-1,3-benzodiazol-1-yl)-N-(5,6-dichloropyridin-3-yl)cyclohexane-1-carboxamide] was 1.39 µM.
Compound `COc1cc(NC(=O)[C@H]2CC[C@@H](n3c(=O)[nH]c4c(C(=O)NC5CCNC5)cccc43)CC2)ccc1C` (stereo partly drawn) [Example 294, 2-Oxo-N-(pyrrolidin-3-yl)-1-[cis-4-[(3-methoxy-4-methylphenyl)carbamoyl]cyclohexyl]-2,3-dihydro-1H-1,3-benzodiazole-4-carboxamide] yielded a half-inhibitory concentration (IC50) of 0.00121 µM.
`COc1ccc(NC(=O)N2CCC(n3c(=O)[nH]c4c(F)cccc43)CC2)cc1Cl` [Example 182, N-(3-Chloro-4-methoxyphenyl)-4-(4-fluoro-2-oxo-2,3-dihydro-1H-1,3-benzodiazol-1-yl)piperidine-1-carboxamide]: 4.79 µM corresponded to half-maximal inhibition (IC50).
Compound `COc1ccc(NC(=O)N2CCC(n3c(=O)[nH]c4c(N)cccc43)CC2)cc1Cl` [Example 174, 4-(4-Amino-2-oxo-2,3-dihydro-1H-1,3-benzodiazol-1-yl)-N-(3-chloro-4-methoxyphenyl)piperidine-1-carboxamide] yielded an IC50 of 2.54 µM.
`COc1cc(NC(=O)N2CCC(n3c(=O)[nH]c4c(Cl)cccc43)CC2)ccc1C` [Example 114, 4-(4-Chloro-2-oxo-2,3-dihydro-1H-1,3-benzodiazol-1-yl)-N-(3-methoxy-4-methylphenyl)piperidine-1-carboxamide] yielded a concentration for half-maximal inhibition (IC50) of 0.69 µM.
In turn, `COc1cc(NC(=O)N2CCC(n3c(=O)[nH]c4c(C)cccc43)CC2)ccc1C` [Example 115, N-(3-methoxy-4-methylphenyl)-4-(4-methyl-2-oxo-2,3-dihydro-1H-1,3-benzodiazol-1-yl)piperidine-1-carboxamide] yielded an IC50 of 1.43 µM.
As for `COc1cc(NC(=O)[C@H]2CC[C@@H](n3c(=O)[nH]c4ncccc43)CC2)ccc1C` [Example 232, Cis-N-(3-methoxy-4-methylphenyl)-4-{2-oxo-1H,2H,3H-imidazo[4,5-b]pyridin-1-yl}cyclohexane-1-carboxamide], the midpoint of inhibition, the IC50, lay at 0.109 µM.
Compound `COc1cc(NC(=O)[C@H]2CC[C@@H](n3c(=O)[nH]c4c(N5Cc6cn[nH]c6C5)cccc43)CC2)ccc1C` [Example 314, Cis-N-(3-methoxy-4-methylphenyl)-4-(2-oxo-4-{1H,4H,5H,6H-pyrrolo[3,4-c]pyrazol-5-yl}-2,3-dihydro-1H-1,3-benzodiazol-1-yl)cyclohexane-1-carboxamide] registered a half-maximal inhibitory concentration (IC50) of 0.0563 µM.
Under `CCCNc1cccc2c1[nH]c(=O)n2C1CCN(C(=O)Nc2ccc(OC)c(Cl)c2)CC1` [Example 175, N-(3-Chloro-4-methoxyphenyl)-4-[2-oxo-4-(propylamino)-2,3-dihydro-1H-1,3-benzodiazol-1-yl]piperidine-1-carboxamide] stands 2.62 µM; under `COc1ccc(NC(=O)N2CCC(n3c(=O)[nH]c4c(SC)cccc43)CC2)cc1Cl` [Example 176, N-(3-Chloro-4-methoxyphenyl)-4-[4-(methylsulfanyl)-2-oxo-2,3-dihydro-1H-1,3-benzodiazol-1-yl]piperidine-1-carboxamide], 1.08 µM.
In turn, `COc1cc(NC(=O)[C@H]2CC[C@@H](n3c(=O)[nH]c4c(NC(C)=O)cccc43)CC2)ccc1C` [Example 288, Cis-4-(4-acetamido-2-oxo-2,3-dihydro-1H-1,3-benzodiazol-1-yl)-N-(3-methoxy-4-methylphenyl)cyclohexane-1-carboxamide] showed an IC50 of 0.023 µM.
For the compound `COc1cc(NC(=O)[C@H]2CC[C@@H](n3c(=O)[nH]c4c(NC(=O)c5nccn5C)cccc43)CC2)ccc1C` [Example 318, 1-Methyl-N-{2-oxo-1-[cis-4-[(3-methoxy-4-methylphenyl)carbamoyl]cyclohexyl]-2,3-dihydro-1H-1,3-benzodiazol-4-yl}-1H-imidazole-2-carboxamide], the IC50 was determined as 0.0795 µM.
The value for `O=c1[nH]c2c(Br)cccc2n1[C@H]1CC[C@@H](C(=O)Nc2cccc3[nH]ccc23)CC1` [Example 145, (Cis)-4-(4-bromo-2-oxo-2,3-dihydro-1H-1,3-benzodiazol-1-yl)-N-(1H-indol-4-yl)cyclohexane-1-carboxamide] was 1.08 µM; that for `Cc1cccc2c1[nH]c(=O)n2C1CCN(C(=O)Nc2ccc(I)cc2)CC1` [Example 4, N-(4-iodophenyl)-4-(4-methyl-2-oxo-2,3-dihydro-1H-1,3-benzodiazol-1-yl)piperidine-1-carboxamide] was 0.66 µM; that for `COc1cc(NC(=O)N2CCC(n3c(=O)[nH]c4c(OC)cccc43)CC2)ccc1C` [Example 116, 4-(4-Methoxy-2-oxo-2,3-dihydro-1H-1,3-benzodiazol-1-yl)-N-(3-methoxy-4-methylphenyl)piperidine-1-carboxamide] was 2.06 µM.
Compound `O=C(Nc1ccc(Cl)cc1)N1CCC(n2c(=O)[nH]c3cc(Cl)ccc32)CC1` [Example 1, 4-(5-Chloro-2-oxo-2,3-dihydro-1H-1,3-benzodiazol-1-yl)-N-(4-chlorophenyl) piperidine-1-carboxamide] came in with an IC50 of 2.8 µM.
The compound `COc1cc(F)cc(NC(=O)[C@H]2CC[C@@H](n3c(=O)[nH]c4c(Br)cccc43)CC2)c1` [Example 155, (Cis)-4-(4-bromo-2-oxo-2,3-dihydro-1H-1,3-benzodiazol-1-yl)-N-(3-fluoro-5-methoxyphenyl)cyclohexane-1-carboxamide] came in with an IC50 of 1.82 µM.
Under `COc1cc(NC(=O)[C@H]2CC[C@@H](n3c(=O)[nH]c4c(C(=O)NC5CNC5)cccc43)CC2)ccc1C` [Example 293, N-(Azetidin-3-yl)-2-oxo-1-[cis-4-[(3-methoxy-4-methylphenyl)carbamoyl]cyclohexyl]-2,3-dihydro-1H-1,3-benzodiazole-4-carboxamide] stands 0.00142 µM; under `Cc1ccc(NC(=O)[C@H]2CC[C@@H](n3c(=O)[nH]c4c(Br)cccc43)CC2)cc1C(F)(F)F` [Example 144, (Cis)-4-(4-bromo-2-oxo-2,3-dihydro-1H-1,3-benzodiazol-1-yl)-N-[4-methyl-3-(trifluoromethyl)phenyl]cyclohexane-1-carboxamide], 0.983 µM; under `COc1ccc(NC(=O)N2CCC(n3c(=O)[nH]c4cc(C)cnc43)CC2)cc1Cl` [Example 181, N-(3-Chloro-4-methoxyphenyl)-4-{6-methyl-2-oxo-1H,2H,3H-imidazo[4,5-b]pyridin-3-yl}piperidine-1-carboxamide], 7.09 µM.
